# Results: paper PMC3828125 (Biochemistry, 2011)
# Read-outs that look alike come from different tables or passages of the source. Marks after values point to notes of the source that are not given here.
# Tests used:
# [1] = molecular target: T1, CYP3A4 (Homo sapiens, UniProt P08684, S18F)
# [2] = molecular target: T1, CYP3A4; remark: listed apart in the source
# [3] = molecular target: CYP3A4 (Homo sapiens, UniProt P08684); conditions: for Km at 2 min: human, fit to eq 1
# [4] = molecular target: T1, CYP3A4; conditions: read-out: Km of 10,11-epoxide formation; ref [26], [89]; cited from earlier work
# [5] = molecular target: T1, CYP3A4; test: Absorbance difference titrations of recombinant CYP3A4 with MDZ and CBZ
# [6] = molecular target: T1, CYP3A4; conditions: read-out: experimental KM for 1′-OH-MDZ formation; ref [23], [86]–[88]; cited from earlier work
# [7] = molecular target: recombinant human cytochrome P450 3A4 (CYP3A4 NF14 construct) (human) (UniProt P08684); test: SEC
# [8] = 260 μM Carbamazepine alone, 1 μM CYP3A4
# [9] = 260 μM Carbamazepine alone, 1 μM CYP3A4, chemical equivalence (eq 7)
# [10] = 260 μM Carbamazepine alone, 1 μM CYP3A4, eq 6
# [11] = 260 μM Midazolam alone, 1 μM CYP3A4
# [12] = 260 μM Midazolam alone, 1 μM CYP3A4, eq 6
# [13] = 260 μM Midazolam with 260 μM Carbamazepine bound simultaneously, 1 μM CYP3A4
compound,measurement,setting,value
"NC(=O)N1c2ccccc2C=Cc2ccccc21 [CBZ, carbamazepine]",%HS of CYP3A4 heme,"[1]; 260 μM CBZ, 1 μM CYP3A4 (33% HS without ligands)",34%
same,"RFe2+-CO, proton peak aa′",[2]; [8],1.67 ± 0.11 s⁻¹
same,"RFe2+-CO, proton peak bb′",[2]; [8],1.54 ± 0.09 s⁻¹
same,"RFe2+-CO, proton peak cc′",[2]; [8],1.59 ± 0.10 s⁻¹
same,"RFe2+-CO, proton peak dd′",[2]; [8],1.47 ± 0.09 s⁻¹
same,"RFe2+-CO, proton peak ee′",[2]; [8],1.52 ± 0.09 s⁻¹
same,"RFe3+, proton peak aa′",[2]; [8],2.44 ± 0.24 s⁻¹
same,"RFe3+, proton peak bb′",[2]; [8],2.56 ± 0.33 s⁻¹
same,"RFe3+, proton peak cc′",[2]; [8],2.38 ± 0.23 s⁻¹
same,"RFe3+, proton peak dd′",[2]; [8],2.50 ± 0.25 s⁻¹
same,"RFe3+, proton peak ee′",[2]; [8],2.22 ± 0.20 s⁻¹
same,"RP, proton peak aa′",[2]; [8],0.77 ± 0.26 s⁻¹
same,"RP, proton peak bb′",[2]; [8],1.03 ± 0.34 s⁻¹
same,"RP, proton peak cc′",[2]; [8],0.79 ± 0.25 s⁻¹
same,"RP, proton peak dd′",[2]; [8],1.03 ± 0.26 s⁻¹
same,"RP, proton peak ee′",[2]; [8],0.71 ± 0.22 s⁻¹
same,"rmin, proton peak aa′",[2]; [9],7.02±0.40 ^b Å
same,"rmin, proton peak bb′",[2]; [9],6.69±0.38 ^b Å
same,"rmin, proton peak cc′",[2]; [9],6.98±0.37 ^b Å
same,"rmin, proton peak dd′",[2]; [9],6.69±0.29 ^b Å
same,"rmin, proton peak ee′",[2]; [9],7.12±0.37 ^b Å
same,"rapp, proton peak bb′",[2]; [10],7.51±0.42 Å
same,"rapp, proton peak cc′",[2]; [10],7.84±0.41 Å
same,"rapp, proton peak dd′",[2]; [10],7.51±0.33 Å
same,"rapp, proton peak ee′",[2]; [10],7.99±0.41 Å
same,calculated proton-heme distances on average,[2]; CBZ alone,7–8 Å
same,variation in the proton RPs,[2]; CBZ alone,30%
same,RP of CBZ protons,[2]; in the presence of MDZ,< 0.04
same,effect of CBZ on 1′-OH-MDZ and 4-OH-MDZ formation,"[3]; low [MDZ], 240 μM CBZ",competitively inhibit
same,effect of CBZ on 1′-OH-MDZ formation,"[3]; saturating CBZ (240 μM), near saturating MDZ",only partially inhibited
same,Km,[4],119 to 442 µM
same,Amax of the CBZ titration curve,"[5]; CBZ alone, fit to eq 3",0.0049 ± 0.0007 µM⁻¹ cm⁻¹
"Cc1ncc2n1-c1ccc(Cl)cc1C(c1ccccc1F)=NC2 [MDZ, midazolam]",%HS of CYP3A4 heme,"[1]; 260 μM MDZ and 260 μM CBZ together, 1 μM CYP3A4",55%
same,%HS of CYP3A4 heme,"[1]; 260 μM MDZ, 1 μM CYP3A4 (33% HS without ligands)",70%
same,"RFe2+-CO, proton peak 1′",[2]; [11],1.53 ± 0.04 s⁻¹
same,"RFe2+-CO, proton peak 3",[2]; [11],1.45 ± 0.18 s⁻¹
same,"RFe2+-CO, proton peak 3F",[2]; [11],1.46 ± 0.20 s⁻¹
same,"RFe2+-CO, proton peak 4F",[2]; [11],1.91 ± 0.07 s⁻¹
same,"RFe2+-CO, proton peak 5F",[2]; [11],1.72 ± 0.10 s⁻¹
same,"RFe2+-CO, proton peak 6F",[2]; [11],1.83 ± 0.11 s⁻¹
same,"RFe2+-CO, proton peak 7",[2]; [11],1.67 ± 0.09 s⁻¹
same,"RFe2+-CO, proton peak 9",[2]; [11],1.65 ± 0.12 s⁻¹
same,"RFe2+-CO, proton peak 10",[2]; [11],1.81 ± 0.11 s⁻¹
same,"RFe3+, proton peak 1′",[2]; [11],2.18 ± 0.02 s⁻¹
same,"RFe3+, proton peak 3",[2]; [11],1.88 ± 0.04 s⁻¹
same,"RFe3+, proton peak 3F",[2]; [11],1.60 ± 0.07 s⁻¹
same,"RFe3+, proton peak 4F",[2]; [11],1.85 ± 0.04 s⁻¹
same,"RFe3+, proton peak 5F",[2]; [11],2.17 ± 0.06 s⁻¹
same,"RFe3+, proton peak 6F",[2]; [11],1.88 ± 0.05 s⁻¹
same,"RFe3+, proton peak 7",[2]; [11],1.81 ± 0.05 s⁻¹
same,"RFe3+, proton peak 9",[2]; [11],2.97 ± 0.17 s⁻¹
same,"RFe3+, proton peak 10",[2]; [11],2.85 ± 0.06 s⁻¹
same,"RP, proton peak 1′",[2]; [11],0.65 ± 0.05 s⁻¹
same,"RP, proton peak 3",[2]; [11],0.43 ± 0.18 s⁻¹
same,"RP, proton peak 3F",[2]; [11],0.14 ± 0.21 s⁻¹
same,"RP, proton peak 4F",[2]; [11],-0.06 ± 0.08 s⁻¹
same,"RP, proton peak 5F",[2]; [11],0.45 ± 0.11 s⁻¹
same,"RP, proton peak 6F",[2]; [11],0.05 ± 0.12 s⁻¹
same,"RP, proton peak 7",[2]; [11],0.14 ± 0.10 s⁻¹
same,"RP, proton peak 9",[2]; [11],1.31 ± 0.20 s⁻¹
same,"RP, proton peak 10",[2]; [11],1.03 ± 0.12 s⁻¹
same,"rmin, proton peak 4F","[2]; 260 μM Midazolam alone, 1 μM CYP3A4, calculated using the highest RP",17.02 ^c Å
same,"rmin, proton peak 1′","[2]; 260 μM Midazolam alone, 1 μM CYP3A4, chemical equivalence (eq 7)",7.62±0.18 ^b Å
same,"rapp, proton peak 1′",[2]; [12],9.15±0.22 Å
same,"rapp, proton peak 3",[2]; [12],9.79±0.71 Å
same,"rapp, proton peak 3F",[2]; [12],11.84±2.95 Å
same,"rapp, proton peak 5F",[2]; [12],9.75±0.46 Å
same,"rapp, proton peak 6F",[2]; [12],14.13±6.01 Å
same,"rapp, proton peak 7",[2]; [12],11.83±1.50 Å
same,"rapp, proton peak 9",[2]; [12],8.14±0.27 Å
same,"rapp, proton peak 10",[2]; [12],8.47±0.24 Å
same,"RFe2+-CO, proton peak 1′",[2]; [13],1.57 ± 0.04 s⁻¹
same,"RFe2+-CO, proton peak 3",[2]; [13],1.44 ± 0.12 s⁻¹
same,"RFe2+-CO, proton peak 3F",[2]; [13],1.54 ± 0.18 s⁻¹
same,"RFe2+-CO, proton peak 4F",[2]; [13],~ 1 sec^−1
same,"RFe2+-CO, proton peak 5F",[2]; [13],1.16 ± 0.19 s⁻¹
same,"RFe2+-CO, proton peak 6F",[2]; [13],1.76 ± 0.13 s⁻¹
same,"RFe2+-CO, proton peak 7",[2]; [13],1.41 ± 0.06 s⁻¹
same,"RFe2+-CO, proton peak 9",[2]; [13],1.26 ± 0.07 s⁻¹
same,"RFe2+-CO, proton peak 10",[2]; [13],1.76 ± 0.09 s⁻¹
same,"RFe3+, proton peak 1′",[2]; [13],2.13 ± 0.04 s⁻¹
same,"RFe3+, proton peak 3",[2]; [13],1.82 ± 0.06 s⁻¹
same,"RFe3+, proton peak 3F",[2]; [13],2.04 ± 0.05 s⁻¹
same,"RFe3+, proton peak 4F",[2]; [13],1.08 ± 0.05 s⁻¹
same,"RFe3+, proton peak 5F",[2]; [13],1.05 ± 0.04 s⁻¹
same,"RFe3+, proton peak 6F",[2]; [13],1.69 ± 0.24 s⁻¹
same,"RFe3+, proton peak 7",[2]; [13],1.70 ± 0.05 s⁻¹
same,"RFe3+, proton peak 9",[2]; [13],2.37 ± 0.07 s⁻¹
same,"RFe3+, proton peak 10",[2]; [13],2.69 ± 0.06 s⁻¹
same,"RP, proton peak 1′",[2]; [13],0.56 ± 0.06 s⁻¹
same,"RP, proton peak 3",[2]; [13],0.38 ± 0.13 s⁻¹
same,"RP, proton peak 3F",[2]; [13],0.50 ± 0.19 s⁻¹
same,"RP, proton peak 4F",[2]; [13],0.07 ± 0.12 s⁻¹
same,"RP, proton peak 5F",[2]; [13],-0.11 ± 0.19 s⁻¹
same,"RP, proton peak 6F",[2]; [13],-0.07 ± 0.27 s⁻¹
same,"RP, proton peak 7",[2]; [13],0.29 ± 0.08 s⁻¹
same,"RP, proton peak 9",[2]; [13],1.11 ± 0.10 s⁻¹
same,"RP, proton peak 10",[2]; [13],0.93 ± 0.11 s⁻¹
same,average RP of the fluorophenyl protons,[2]; MDZ alone,0.15 s⁻¹
same,average distance of chlorophenyl group from heme,"[2]; MDZ alone, calculated from RPs",~ 10 Å
same,average distance of fluorophenyl group from heme,"[2]; MDZ alone, calculated from RPs",~ 13 Å
same,distance of 1′-CH3 from heme,"[2]; MDZ alone, depending on the orientation",7.6–9.2 Å
same,average RP of the fluorophenyl protons,[2]; MDZ in the presence of CBZ,0.1 s⁻¹
same,Km,[6],5 to 11 µM
same,[MDZ] at which velocity of 1′-OH-MDZ formation reaches a maximum,[3]; absence of CBZ,25 µM
same,Km at 2 min,"[3]; pH 7.4, Km of 1′-OH-MDZ formation, presence of 240 μM CBZ",12.5 ± 2.1 µM
same,Km at 2 min,"[3]; pH 7.4, Km of 4-OH-MDZ formation, absence of CBZ",47.5 ± 6.8 µM
same,Km at 2 min,"[3]; pH 7.4, Km of 4-OH-MDZ formation, presence of 240 μM CBZ",57.7 ± 2.1 µM
same,Δε at 100 μM MDZ in the titration curve,[5]; 120 μM CBZ,~ 0.015 μM^−1 cm^−1
same,Amax of the MDZ titration curve,[5]; absence of CBZ,0.0342 ± 0.0083 µM⁻¹ cm⁻¹
same,Kd,"[5]; human, pH 7.4",70.6 ± 29 µM
same,Δε at 100 μM MDZ in the titration curve,[5]; no CBZ,~ 0.025 μM^−1 cm^−1
recombinant human cytochrome P450 3A4 (CYP3A4 NF14 construct) (from UniProt P08684 1-503) (enzyme),stoichiometry N,[7],4
